Consider one compound from US5283353A, “Preparation of 1-amino-1-deoxyoligosaccharides and derivatives thereof” (Genzyme Corporation, priority 1990, dated 1994).

The nature of test [1]: Hydrolysis of 1-amino-1-deoxy-N-acetylglucosamine to 2-acetamido-2-deoxy-D-glucose in 50 mM phosphate p2H 7.0 buffer, followed by 1H NMR. It is filed as physicochemical. Particulars: for Pseudo-first order rate constant for hydrolysis: calculated. On the procedure: To a solution of 1 mg of turkey ovomucoid glycopeptide (a heterogeneous mixture of three structurally related complex type oligosaccharides purified as described by E. M. Taga et al., Biochemistry, 23, 815-822 (1984)) in 50 mM phosphate, p^2 H 7.0 buffer in 99.96% ^2 H2 O equilibrated at the desired temperature was added the almond amidohydrolase enzyme to give a total volume of 0.5 ml. The reaction was followed by ^1 H NMR. The hydrolysis of 1-amino-1-deoxy-N-acetylglucosamine in 50 mM phosphate, p^2 H 7.0, buffer in 99.96% ^2 H2 O to 2-acetamido-2-deoxy-D-glucose was followed by ^1 H NMR as a reference compound. The proton peaks of interest were integrated and the pseudo first-order rate constant was calculated from the slope of a plot of the natural logarithm of the peak area as a function of time.
The rate of hydrolysis for the model compound was readily measured using ^1 H NMR. Upon hydrolysis, the ^1 H NMR signal for the anomeric proton of the model compound shifts downfield from 4.189 ppm (J1,2 =9.35 Hz) to 5.195 ppm (J1,2 =3.38 Hz) and 4.709 ppm (J1,2 =3.38 Hz), the former the alpha-anomer and the latter the beta-anomer of the product, N-acetylglucosamine, while the chemical shift of the N-acetyl group is unchanged. The pseudo-first order rate constants for the enzyme-catalyzed reaction and for the hydrolysis of the model compound are given in Table I; based on least squares standard error analysis, the precision in the pseudo-first order rate constant is ±5%. These limited data give energies of activation for the enzyme-catalyzed reaction of 9.5 kcal […] and for the model compound of 17.7 kcal mol^1.

The conditions of test [2]: cited from earlier work.

The structures appear in SMILES notation. Read-outs that look alike come from different tables or passages of the source.

With `CC(=O)N[C@@H]1[C@@H](O)[C@H](O)[C@@H](CO)O[C@H]1N` [1-Amino-N-acetylglucosamine, 1-amino-1-deoxy-N-acetylglucosamine], the “Pseudo-first order rate constant for hydrolysis” value is on record as 1.08 10^3 × k (min^-1) in test [1] (p2H 7.0, 24 °C); 4.56 10^3 × k (min^-1) in test [1] (p2H 7.0, 39 °C); 0.88 10^3 × k (min^-1) in test [2] (p2H 7.0, 22 °C); 3.81 10^3 × k (min^-1) in test [2] (p2H 7.0, 37 °C). For the same compound, in test [1] (p2H 7.0, from rate constants of Table I), the “Energy of activation for hydrolysis of the model compound” value was determined as 17.7 kcal mol^1.
